This passage reports IC50 results from publication PMC2248166, “Quantitative peptide binding motifs for 19 human and mouse MHC class I molecules derived using positional scanning combinatorial peptide libraries” (Immunome Research, 2008).

The structures appear in SMILES notation. Where a SMILES comes first, the peptide text is derived from it.

This experiment deals with HLA A*3201 (Homo sapiens, UniProt P04439, A270S/D101S/D185E/E176V/E277Q/F133L/G103R/G107R/G231S/H175R/I121M/I218V/I322F/K168Q/L105A/L300P/L318F/M331R/P208A/P217A/Q94H/R106L/R138Q/S129P/T104I/T323A/T345S/V100E/V321M/V358M). As to the kind of experiment: biochemical. It counts as binding.
Regarding `CC[C@H](C)[C@H](NC(=O)[C@@H](NC(=O)[C@H](CC(C)C)NC(=O)[C@@H](NC(=O)[C@@H](NC(=O)[C@H](CO)NC(=O)[C@H](CC(C)C)NC(=O)[C@H](CCSC)NC(=O)[C@@H](N)[C@@H](C)O)[C@@H](C)CC)[C@@H](C)CC)C(C)C)C(=O)O` [3102.0409] (H-TMLSIILVI-OH), the IC50 worked out at 16 nM. Then `CC(C)C[C@H](NC(=O)[C@@H](N)Cc1ccc(O)cc1)C(=O)N[C@@H](Cc1ccccc1)C(=O)N[C@@H](CO)C(=O)N[C@@H](CCC(N)=O)C(=O)N[C@@H](CC(N)=O)C(=O)N[C@@H](Cc1ccc(O)cc1)C(=O)N[C@@H](CO)C(=O)N[C@@H](Cc1ccccc1)C(=O)O` [3102.0410] (H-YLFSQNYSF-OH), with 1.4 nM; and `CC[C@H](C)[C@H](N)C(=O)N[C@@H](CC(C)C)C(=O)N[C@H](C(=O)N[C@H](C(=O)N[C@@H](Cc1ccccc1)C(=O)N[C@H](C(=O)N[C@H](C(=O)N[C@@H](C)C(=O)N[C@H](C(=O)O)[C@@H](C)CC)C(C)C)[C@@H](C)O)[C@@H](C)CC)C(C)C` [3102.0411] (H-ILVIFTVAI-OH), with 15 nM; and `CC[C@H](C)[C@H](NC(=O)[C@@H](N)C(C)C)C(=O)N[C@@H](CC(N)=O)C(=O)N[C@@H](Cc1ccc(O)cc1)C(=O)N[C@@H](Cc1ccccc1)C(=O)N[C@@H](CC(N)=O)C(=O)N[C@@H](CCCNC(=N)N)C(=O)N[C@@H](CCSC)C(=O)N[C@@H](Cc1ccccc1)C(=O)O` [3102.0412] (H-VINYFNRMF-OH), with 4.3 nM. `CC[C@H](C)[C@H](NC(=O)[C@H](Cc1ccccc1)NC(=O)[C@H](CCCCN)NC(=O)[C@@H](NC(=O)[C@H](Cc1ccc(O)cc1)NC(=O)[C@H](CCC(N)=O)NC(=O)[C@@H](NC(=O)[C@@H](N)CC(C)C)C(C)C)[C@@H](C)CC)C(=O)N[C@@H](Cc1ccccc1)C(=O)O` [3102.0413] (H-LVQYIKFIF-OH): the IC50 was found to be 20 nM. The figure for `CC[C@H](C)[C@H](NC(=O)[C@@H](N)CCCCN)C(=O)N[C@@H](CC(=O)O)C(=O)N[C@@H](CC(N)=O)C(=O)N[C@@H](Cc1ccc(O)cc1)C(=O)N[C@H](C(=O)N[C@H](C(=O)N[C@@H](CCCCN)C(=O)N[C@@H](Cc1ccccc1)C(=O)O)C(C)C)C(C)C` [3102.0414] (H-KIDNYVVKF-OH) is 19 nM. In turn, `CC[C@H](C)[C@H](N)C(=O)N[C@@H](CO)C(=O)N[C@@H](CC(C)C)C(=O)N[C@@H](Cc1ccccc1)C(=O)N[C@@H](Cc1ccc(O)cc1)C(=O)N[C@H](C(=O)N[C@@H](Cc1ccccc1)C(=O)N[C@@H](C)C(=O)N[C@H](C(=O)O)[C@@H](C)CC)[C@@H](C)O` [3102.0415] (H-ISLFYTFAI-OH) showed a half-maximal inhibitory concentration (IC50) of 0.57 nM. The figure for `C[C@@H](O)[C@H](NC(=O)CN)C(=O)N[C@@H](Cc1c[nH]cn1)C(=O)N[C@@H](Cc1ccc(O)cc1)C(=O)N[C@@H](CCC(N)=O)C(=O)N[C@@H](CC(N)=O)C(=O)N[C@@H](Cc1c[nH]cn1)C(=O)NCC(=O)N[C@@H](Cc1ccccc1)C(=O)O` [3102.0417] (H-GTHYQNHGF-OH) is 6 nM; for `CC[C@H](C)[C@H](NC(=O)[C@@H](NC(=O)[C@@H](N)CO)[C@@H](C)CC)C(=O)N[C@@H](CC(N)=O)C(=O)N[C@@H](CO)C(=O)N[C@@H](CC(N)=O)C(=O)N[C@H](C(=O)N[C@H](C(=O)N[C@@H](Cc1c[nH]c2ccccc12)C(=O)O)[C@@H](C)O)C(C)C` [3102.0419] (H-SIINSNVTW-OH) it is 11 nM. The figure for `CC[C@H](C)[C@H](NC(=O)[C@H](CC(C)C)NC(=O)[C@H](Cc1ccccc1)NC(=O)[C@@H](NC(=O)[C@@H](N)CCCNC(=N)N)[C@@H](C)O)C(=O)N[C@@H](CC(=O)O)C(=O)N[C@@H](CC(C)C)C(=O)N[C@@H](C)C(=O)N[C@@H](Cc1ccccc1)C(=O)O` [3102.0420] (H-RTFLIDLAF-OH) is 0.48 nM. Then `CC[C@H](C)[C@H](NC(=O)[C@H](CO)NC(=O)[C@H](CC(C)C)NC(=O)[C@@H](NC(=O)[C@H](Cc1ccccc1)NC(=O)[C@H](CC(N)=O)NC(=O)[C@H](CCC(=O)O)NC(=O)[C@@H](NC(=O)[C@@H](N)CCCNC(=N)N)[C@@H](C)O)C(C)C)C(=O)O` [3102.0421] (H-RTENFVLSI-OH), with 1.6 nM.
